In patent publication US9873695B2, “Serine derivatives as ghrelin receptor agonists” (RaQualia Pharma Inc., priority 2014, dated 2018):

Molecular target: T1, human ghrelin receptor (Homo sapiens, UniProt Q92847)
T1 construct: expressed in transfected cells
Assay: Ghrelin receptor agonistic activity induced Ca2+ influx in HEK293 cells stably expressing human ghrelin receptor
Assay type: cell-based
Conditions: Ca2+ influx (Fluo-4, FDSS6000), 11-point dose-response
Protocol: Measurement of the Ghrelin Receptor Agonistic Activity Induced Ca^2+ Influx in HEK293 Cells Stably Expressing Human Ghrelin Receptor
HEK293 cells stably expressing human ghrelin receptor were maintained in Dulbecco's modified Eagle medium (high glucose) supplemented with 10% fetal bovine serum, 100 units/ml penicillin, 100 microg/ml streptomycin and 500 microg/ml G418 at 37° C. in a humidified incubator with 5% CO2 and grown to 60-80% confluence. The day before the assay, the cells were seeded on poly-D-lysine coated 384-well plates (BD FALCON) at a density of 10,000 cells per well, and incubated overnight in incubator.
On the day of the assay, the cells were washed three times with assay buffer (Hanks' balanced salt solution with 20 mM HEPES, pH7.4), and were incubated for 1 hour at room temperature to load 0.5 microM Fluo-4 AM reagent (Invitrogen).
After removing Fluo-4, and washing with assay buffer, the cells were added with various concentrations of the compounds. The changes in intracellular calcium concentration were monitored with the fluorescence imaging plate reader, FDSS6000 (Hamamatsu Photonics).
The EC50 values for compounds of the present invention were determined from 11-point dose-response studies. Curves were generated using the average of duplicate wells for each data point. Finally, the EC50 values were calculated using the best-fit dose curve determined by XLfit (ID Business Solutions Ltd).

T1 sequence (Q92847 whole entry): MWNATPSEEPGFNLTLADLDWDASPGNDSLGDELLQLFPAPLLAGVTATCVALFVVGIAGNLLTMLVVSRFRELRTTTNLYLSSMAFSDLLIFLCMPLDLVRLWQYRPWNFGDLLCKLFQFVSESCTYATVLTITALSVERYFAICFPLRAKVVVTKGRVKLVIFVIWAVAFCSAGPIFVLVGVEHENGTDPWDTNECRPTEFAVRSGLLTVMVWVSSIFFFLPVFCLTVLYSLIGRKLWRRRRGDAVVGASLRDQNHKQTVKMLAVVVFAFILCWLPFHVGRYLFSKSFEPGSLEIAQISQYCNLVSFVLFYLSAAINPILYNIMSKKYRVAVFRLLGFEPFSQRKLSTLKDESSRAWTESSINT

| EC50 | SMILES |
| --- | --- |
| < 10 nM | CN1N=C2CCN(C(=O)[C@@H](COc3cc(C(F)(F)F)cc(C(F)(F)F)c3)NC(=O)C(C)(C)N)C[C@@]2(Cc2ccccc2)C1=O [Example 9, 2-amino-N—((R)-1-((R)-3a-benzyl-2-methyl-3-oxo-3a,4,6,7-tetrahydro-2H-pyrazolo[4,3-c]pyridin-5(3H)-yl)-3-(3,5-bis(trifluoromethyl)phenoxy)-1-oxopropan-2-yl)-2-methylpropanamide] |
| < 10 nM | CN1N=C2CCN(C(=O)[C@@H](COc3ccccn3)NC(=O)C(C)(C)N)C[C@@]2(Cc2ccccc2)C1=O [Example 17, 2-amino-N—((R)-1-((R)-3a-benzyl-2-methyl-3-oxo-3a,4,6,7-tetrahydro-2H-pyrazolo[4,3-c]pyridin-5(3H)-yl)-1-oxo-3-(pyridin-2-yloxy)propan-2-yl)-2-methylpropanamide] |
| < 10 nM | CN1N=C2CCN(C(=O)[C@@H](COc3cncc(F)c3)NC(=O)C(C)(C)N)C[C@@]2(Cc2ccccc2)C1=O [Example 18, 2-amino-N—((R)-1-((R)-3a-benzyl-2-methyl-3-oxo-3a,4,6,7-tetrahydro-2H-pyrazolo[4,3-c]pyridin-5(3H)-yl)-3-((5-fluoropyridin-3-yl)oxy)-1-oxopropan-2-yl)-2-methylpropanamide] |
| < 10 nM | CN1N=C2CCN(C(=O)[C@@H](COc3ccc(C#N)cc3)NC(=O)C(C)(C)N)C[C@@]2(Cc2ccccc2)C1=O [Example 20, 2-amino-N—((R)-1-((R)-3a-benzyl-2-methyl-3-oxo-3a,4,6,7-tetrahydro-2H-pyrazolo[4,3-c]pyridin-5(3H)-yl)-3-(4-cyanophenoxy)-1-oxopropan-2-yl)-2-methylpropanamide] |
